Experimental data as given in US20230322761A1, “DEGRADATION OF BRUTON'S TYROSINE KINASE (BTK) BY CONJUGATION OF BTK INHIBITORS WITH E3 LIGASE LIGAND AND METHODS OF USE” (BEIGENE, LTD., priority 2020, published 2023).

Biological target: T1, BTK (Homo sapiens, UniProt Q06187)
T1 construct: endogenous in cells; host or cells: TMD-8 cells
Test: BTK degradation in TMD-8 cells, HTRF assay after 6 h treatment
Format: cell-based
Conditions: for DC50: IC50 (DC50) of BTK degradation; for Dmax: TMD8, maximum percentage of inhibition (degradation)
Protocol: TMD-8 cells are treated with compounds diluted in 0.2% DMSO, dilution is done according to the following protocol: (1) make 500× stock solution in DMSO from 1 mM by 6-fold dilution, total 8 doses were included; (2) make 2× solution in cell culture medium by transferring 0.5 μl 500× stock solution into 125 μl medium; (3) 15 μl of 2× solution is added to cells and incubate for 6 h.
After 6 h treatment, add 10 μl 4×lysis buffer to each well; seal the plate and incubate 30 min at room temperature on a plate shaker; Once the cells are lysed, 16 μL of cell lysate are transferred to a PE 384-well HTRF detection plate; 4 μL of pre-mixed HTRF antibodies are added to each well; Cover the plate with a plate sealer, spin 1000 rpm for 1 min, Incubate overnight at room temperature; Read on BMG PheraStar with HTRF protocol (337 nm-665 nm-620 nm).
The IC50 (DC50) value of a compound can be obtained by fitting the following equation
Y=Bottom+(TOP−Bottom)/(1+((IC50/X)^hillslope))
Wherein, X and Y are known values, and IC50, Hillslope, Top and Bottom are the parameters obtained by fitting with software. Y is the inhibition percentage (calculated from the equation), X is the concentration of the compound; IC50 is the concentration of the compound when the 50% inhibition is reached. The smaller the IC50 value is, the stronger the inhibitory ability of the compound is. Vice versa, the higher the IC50 value is, the weaker the ability the inhibitory ability of the compound is; Hillslope represents the slope of the fitted curve, generally around 1*; Bottom represents the minimum value of the curve obtained by data fitting, which is generally 0%±20%; Top represents the maximum value of the curve obtained by data fitting, which is generally 100%±20%. The experimental data were fitted by calculating and analyzing with Dotmatics data analysis software.

T1 sequence (Q06187 whole entry): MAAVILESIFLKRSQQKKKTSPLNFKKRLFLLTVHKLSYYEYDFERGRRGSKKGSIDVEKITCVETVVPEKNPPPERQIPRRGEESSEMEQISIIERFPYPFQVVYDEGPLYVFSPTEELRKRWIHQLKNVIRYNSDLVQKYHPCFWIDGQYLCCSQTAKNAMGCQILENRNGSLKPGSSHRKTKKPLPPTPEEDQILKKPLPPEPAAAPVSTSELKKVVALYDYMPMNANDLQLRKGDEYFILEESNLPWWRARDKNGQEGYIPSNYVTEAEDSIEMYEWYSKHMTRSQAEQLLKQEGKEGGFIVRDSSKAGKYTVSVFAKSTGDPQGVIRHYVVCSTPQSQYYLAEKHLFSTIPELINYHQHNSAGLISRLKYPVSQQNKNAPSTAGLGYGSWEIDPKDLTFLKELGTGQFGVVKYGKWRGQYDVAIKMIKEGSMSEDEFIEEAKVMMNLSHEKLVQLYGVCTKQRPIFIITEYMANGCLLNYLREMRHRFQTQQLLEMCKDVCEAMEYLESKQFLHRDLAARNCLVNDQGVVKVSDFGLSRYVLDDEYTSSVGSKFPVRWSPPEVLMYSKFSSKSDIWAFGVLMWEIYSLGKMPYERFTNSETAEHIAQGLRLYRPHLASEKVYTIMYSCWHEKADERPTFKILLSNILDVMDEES

| DC50 [nM] | Dmax [%] | SMILES |
| --- | --- | --- |
| 16.9 | 92.8 | Cc1c(-c2n[nH]c3ncc(-c4ccc(C5CCN(CCc6ccc(C7CCC(=O)NC7=O)cc6)CC5)cc4)cc23)ccc(CNC(=O)c2nc(C(C)(C)C)no2)c1F (centres unmarked) [Example 19, 3-(tert-butyl)-N-(4-(5-(4-(1-(4-(2,6-dioxopiperidin-3-yl)phenethyl)piperidin-4-yl)phenyl)-1H-pyrazolo[3,4-b]pyridin-3-yl)-2-fluoro-3-methylbenzyl)-1,2,4-oxadiazole-5-carboxamide] |
| 3.95 | 96.4 | Cc1cc(-c2n[nH]c3ncc(-c4ccc(N5CCN(CC6CCN(c7ccc(N8CCC(=O)NC8=O)cc7)CC6)CC5)cc4)cc23)ccc1CNC(=O)c1nc(C(C)(C)C)no1 [Example 20, 3-(tert-butyl)-N-(4-(5-(4-(4-((1-(4-(2,4-dioxotetrahydropyrimidin-1(2H)-yl)phenyl)piperidin-4-yl)methyl)piperazin-1-yl)phenyl)-1H-pyrazolo[3,4-b]pyridin-3-yl)-2-methylbenzyl)-1,2,4-oxadiazole-5-carboxamide] |
| 8.62 | 97.5 | Cc1cc(-c2n[nH]c3ncc(-c4ccc(N5CCN(CC6CCN(c7ccc(N8CCC(=O)NC8=O)cc7)CC6)CC5)cc4)cc23)ccc1[C@@H](C)NC(=O)c1nc(C(C)(C)C)no1 [Example 21, (R)-3-(tert-butyl)-N-(1-(4-(5-(4-(4-((1-(4-(2,4-dioxotetrahydropyrimidin-1(2H)-yl)phenyl)piperidin-4-yl)methyl)piperazin-1-yl)phenyl)-1H-pyrazolo[3,4-b]pyridin-3-yl)-2-methylphenyl)ethyl)-1,2,4-oxadiazole-5-carboxamide] |
| 9.1 | 97.6 | Cc1cc(-c2n[nH]c3ncc(-c4ccc(N5CCN(CC6CCN(c7ccc(N8CCC(=O)NC8=O)cc7)CC6)CC5)cc4)cc23)ccc1CNC(=O)c1noc(C(C)(C)C)n1 [Example 22, 5-(tert-butyl)-N-(4-(5-(4-(4-((1-(4-(2,4-dioxotetrahydropyrimidin-1(2H)-yl)phenyl)piperidin-4-yl)methyl)piperazin-1-yl)phenyl)-1H-pyrazolo[3,4-b]pyridin-3-yl)-2-methylbenzyl)-1,2,4-oxadiazole-3-carboxamide] |
| 4.04 | 96 | Cc1cc(-c2n[nH]c3ncc(-c4ccc(C5CCN(CCC6CCN(c7ccc(N8CCC(=O)NC8=O)c(Cl)c7)CC6)CC5)cc4)cc23)ccc1CNC(=O)c1nc(C(C)(C)C)no1 [Example 23, 3-(tert-butyl)-N-(4-(5-(4-(1-(2-(1-(3-chloro-4-(2,4-dioxotetrahydropyrimidin-1(2H)-yl)phenyl)piperidin-4-yl)ethyl)piperidin-4-yl)phenyl)-1H-pyrazolo[3,4-b]pyridin-3-yl)-2-methylbenzyl)-1,2,4-oxadiazole-5-carboxamide] |
| 4.62 | 97.3 | Cc1cc(-c2n[nH]c3ncc(-c4ccc(C5CCN(CCCOc6ccc(NC7CCC(=O)NC7=O)c(C)c6)CC5)cc4)cc23)ccc1CNC(=O)c1nc(C(C)(C)C)no1 (centres unmarked) [Example 24, 3-(tert-butyl)-N-(4-(5-(4-(1-(3-(4-((2,6-dioxopiperidin-3-yl)amino)-3-methylphenoxy)propyl)piperidin-4-yl)phenyl)-1H-pyrazolo[3,4-b]pyridin-3-yl)-2-methylbenzyl)-1,2,4-oxadiazole-5-carboxamide] |
| 8.16 | 96.7 | Cc1cc(-c2n[nH]c3ncc(-c4ccc(C5CCN(CCc6ccc(C7CCC(=O)NC7=O)c7ccccc67)CC5)cc4)cc23)ccc1CNC(=O)c1nc(C(C)(C)C)no1 (centres unmarked) [Example 25, 3-(tert-butyl)-N-(4-(5-(4-(1-(2-(4-(2,6-dioxopiperidin-3-yl)naphthalen-1-yl)ethyl)piperidin-4-yl)phenyl)-1H-pyrazolo[3,4-b]pyridin-3-yl)-2-methylbenzyl)-1,2,4-oxadiazole-5-carboxamide] |
| 28.9 | 94.3 | Cc1cc(-c2n[nH]c3ncc(-c4ccc(C5CCN(CCc6ccc(C7CCC(=O)NC7=O)c7c6CCCC7)CC5)cc4)cc23)ccc1CNC(=O)c1nc(C(C)(C)C)no1 (centres unmarked) [Example 26, 3-(tert-butyl)-N-(4-(5-(4-(1-(2-(4-(2,6-dioxopiperidin-3-yl)-5,6,7,8-tetrahydronaphthalen-1-yl)ethyl)piperidin-4-yl)phenyl)-1H-pyrazolo[3,4-b]pyridin-3-yl)-2-methylbenzyl)-1,2,4-oxadiazole-5-carboxamide] |
| 9.25 | 95.3 | Cc1cc(-c2n[nH]c3ncc(-c4ccc(C5CCN(CCCOc6ccc(C7CCC(=O)NC7=O)c(C)c6)CC5)cc4)cc23)ccc1CNC(=O)c1nc(C(C)(C)C)no1 (centres unmarked) [Example 27, 3-(tert-butyl)-N-(4-(5-(4-(1-(3-(4-(2,6-dioxopiperidin-3-yl)-3-methylphenoxy)propyl)piperidin-4-yl)phenyl)-1H-pyrazolo[3,4-b]pyridin-3-yl)-2-methylbenzyl)-1,2,4-oxadiazole-5-carboxamide] |
| 2.54 | 97.1 | COc1cc(N2CCC(CCN3CCC(c4ccc(-c5cnc6[nH]nc(-c7ccc(CNC(=O)c8nc(C(C)(C)C)no8)c(C)c7)c6c5)cc4)CC3)CC2)ccc1N1CCC(=O)NC1=O [Example 28, 3-(tert-butyl)-N-(4-(5-(4-(1-(2-(1-(4-(2,4-dioxotetrahydropyrimidin-1(2H)-yl)-3-methoxyphenyl)piperidin-4-yl)ethyl)piperidin-4-yl)phenyl)-1H-pyrazolo[3,4-b]pyridin-3-yl)-2-methylbenzyl)-1,2,4-oxadiazole-5-carboxamide] |
| 3.2 | 95.4 | Cc1cc(-c2n[nH]c3ncc(-c4ccc(C5CCN(CCc6ccc(OC7CCC(=O)NC7=O)cc6)CC5)cc4)cc23)ccc1CNC(=O)c1nc(C(C)(C)C)no1 (centres unmarked) [Example 29, 3-(tert-butyl)-N-(4-(5-(4-(1-(4-((2,6-dioxopiperidin-3-yl)oxy)phenethyl)piperidin-4-yl)phenyl)-1H-pyrazolo[3,4-b]pyridin-3-yl)-2-methylbenzyl)-1,2,4-oxadiazole-5-carboxamide] |
| 8.19 | 97.5 | COc1cc(OCCCN2CCC(c3ccc(-c4cnc5[nH]nc(-c6ccc(CNC(=O)c7nc(C(C)(C)C)no7)c(C)c6)c5c4)cc3)CC2)ccc1C1CCC(=O)NC1=O (centres unmarked) [Example 30, 3-(tert-butyl)-N-(4-(5-(4-(1-(3-(4-(2,6-dioxopiperidin-3-yl)-3-methoxyphenoxy)propyl)piperidin-4-yl)phenyl)-1H-pyrazolo[3,4-b]pyridin-3-yl)-2-methylbenzyl)-1,2,4-oxadiazole-5-carboxamide] |
| 21.8 | 97.4 | Cc1cc(-c2n[nH]c3ncc(-c4ccc(N5CCN(CC6CCN(c7ccc(N8CCC(=O)NC8=O)cc7)CC6)CC5)cc4)cc23)ccc1CNC(=O)c1cn(C(C)(C)C)nn1 [Example 31, 1-(tert-butyl)-N-(4-(5-(4-(4-((1-(4-(2,4-dioxotetrahydropyrimidin-1(2H)-yl)phenyl)piperidin-4-yl)methyl)piperazin-1-yl)phenyl)-1H-pyrazolo[3,4-b]pyridin-3-yl)-2-methylbenzyl)-1H-1,2,3-triazole-4-carboxamide] |
